What all share (assay): inside-out patch clamp, HEK293, macroscopic current at +[…] mV, Hill fit
What all share (assay type): cell-based

For assay [1], the target named is mouse TRPM4 (Mus musculus, UniProt Q7TN37).
Assay [2] addresses mouse TRPM4 (Mus musculus, UniProt Q7TN37, H160A).
Assay [3] deals with mouse TRPM4 (Mus musculus, UniProt Q7TN37, Y228A).
Assay [4] deals with mouse TRPM4 (Mus musculus, UniProt Q7TN37, W214A).

IC50 data for 1 compound are collected here from publication PMC5901961 (Nature, 2017).

mouse TRPM4 (Mus musculus, UniProt Q7TN37, Y228A), sequence (Q7TN37 whole entry Y228A): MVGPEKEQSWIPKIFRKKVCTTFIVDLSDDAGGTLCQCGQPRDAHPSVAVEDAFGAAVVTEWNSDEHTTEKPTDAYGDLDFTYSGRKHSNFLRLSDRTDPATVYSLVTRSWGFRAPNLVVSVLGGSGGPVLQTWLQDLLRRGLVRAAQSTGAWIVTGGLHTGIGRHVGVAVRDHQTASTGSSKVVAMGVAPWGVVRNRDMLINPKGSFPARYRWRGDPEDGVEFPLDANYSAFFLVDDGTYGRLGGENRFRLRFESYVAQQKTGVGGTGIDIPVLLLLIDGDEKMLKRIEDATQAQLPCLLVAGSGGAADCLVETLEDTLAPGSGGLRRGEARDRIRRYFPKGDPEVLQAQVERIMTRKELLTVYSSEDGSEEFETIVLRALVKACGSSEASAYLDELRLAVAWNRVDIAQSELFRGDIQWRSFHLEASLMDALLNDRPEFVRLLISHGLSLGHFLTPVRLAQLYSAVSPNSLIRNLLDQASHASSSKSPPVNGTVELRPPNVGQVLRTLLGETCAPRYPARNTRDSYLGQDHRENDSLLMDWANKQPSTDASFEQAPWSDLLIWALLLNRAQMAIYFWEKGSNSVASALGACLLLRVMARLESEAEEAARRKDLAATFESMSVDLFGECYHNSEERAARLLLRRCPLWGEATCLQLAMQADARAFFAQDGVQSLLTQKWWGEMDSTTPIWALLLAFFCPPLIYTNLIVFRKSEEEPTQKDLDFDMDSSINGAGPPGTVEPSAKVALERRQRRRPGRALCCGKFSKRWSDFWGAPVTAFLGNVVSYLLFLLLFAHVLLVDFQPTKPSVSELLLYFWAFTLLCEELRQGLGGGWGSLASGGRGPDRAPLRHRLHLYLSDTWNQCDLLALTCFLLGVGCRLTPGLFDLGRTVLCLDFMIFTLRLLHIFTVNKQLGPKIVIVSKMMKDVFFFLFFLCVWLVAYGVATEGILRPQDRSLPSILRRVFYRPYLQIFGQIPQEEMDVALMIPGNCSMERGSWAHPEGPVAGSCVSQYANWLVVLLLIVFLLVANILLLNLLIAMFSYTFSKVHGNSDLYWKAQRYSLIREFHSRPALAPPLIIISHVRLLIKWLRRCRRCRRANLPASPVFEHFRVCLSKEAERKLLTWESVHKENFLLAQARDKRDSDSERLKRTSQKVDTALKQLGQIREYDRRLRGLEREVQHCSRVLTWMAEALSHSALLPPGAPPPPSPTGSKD
mouse TRPM4 (Mus musculus, UniProt Q7TN37), sequence (Q7TN37 whole entry): as the sequence (Q7TN37 whole entry Y228A) above, with A228Y counted along it
mouse TRPM4 (Mus musculus, UniProt Q7TN37, W214A), sequence (Q7TN37 whole entry W214A): as the sequence (Q7TN37 whole entry Y228A) above, with W214A, A228Y counted along it
mouse TRPM4 (Mus musculus, UniProt Q7TN37, H160A), sequence (Q7TN37 whole entry H160A): as the sequence (Q7TN37 whole entry Y228A) above, with H160A, A228Y counted along it

For orientation: IC50 means the concentration at which inhibition is half-maximal. Low values mean greater potency, high ones weaker potency. As for `Nc1ncnc2c1ncn2[C@@H]1O[C@H](COP(=O)(O)OP(=O)(O)OP(=O)(O)O)[C@@H](O)[C@H]1O` [ATP], the IC50 against mouse TRPM4 [1] was 2300 ± 500 nM; on mouse TRPM4 [2] it was above 160 µM; on mouse TRPM4 [3], 14.2 ± 0.7 µM; against mouse TRPM4 [4], 6.5 ± 0.8 µM.
